What was measured:
γδT cells [1] = assay: Comparison of compound 7 with zoledronate: proliferation and purity of γδT cells (IL-2 culture); type: cell-based, human; details: for effect on cell proliferation: Day 8, IL-2 300 U/mL
Procedure: Peripheral blood monocytes were collected from healthy subjects (n=8, HD1 to HD8) in two experiments (n=4 in each experiment). On Day 0, 1.5×10^6 of the collected peripheral blood monocytes were added to each well of 24-well plate. […] Then, on Day 1, IL-2 (300 U/mL) was added. The IL-2 is a cytokine used for the proliferation of the γδT cells according to the reports (non-patent documents 5 and 6). On Day 6, the cells of one well were diluted 2-fold into two wells. The number of cells was counted. On Day 7, the cells of two wells were diluted 2-fold into four wells, and IL-2 (300 U/mL) was further added. On Day 8, half-volume (about 3 mL) of the cells were diluted 6-fold to 18 mL, and cultured in a T75 flask. On Day 8 and Day 11, the number of cells was counted and cell purity was measured by flow cytometry analysis.

γδT cells [2] = assay: Proliferation of γδT cells from peripheral blood monocytes with compound 7, IL-7 and IL-15; type: cell-based, human; details: for ratio of the γδT cells: Day 11
Procedure: The monocytes were prepared from peripheral blood of two healthy subjects by Ficoll. Personal agreement for the blood collection was achieved based on the research ethics code of the medical school of Mie University. The monocytes adjusted to 1.5×10^6 cells/mL with the culture solution of Yssel containing 10% human AB serum were cultured for one day in the presence of tetrakispivaloyloxymethyl 2-(thiazole-2-ylamino) ethylidene-1,1-bisphosphonate (compound 7, 1 μM), and then added with 25 ng/mL of IL-7 (Miltenyi Biotec, catalog number: 170-076-111) and 25 ng/mL of IL-15 (Miltenyi Biotec, catalog number: 170-076-114), and further cultured for 10 days. The frequency of the γδT cells in the monocyte population were analyzed by flow cytometry (FACSCANTO II, Becton Dickinson). As a result, the ratio of the γδT cells at the start of culture (Day 0) was 2.7% for donor 1 (HD1) and 1.7% for donor 2 (HD2), respectively. […] Peripheral blood of healthy human normally contains 1 to 3% of the γδT cells. However, approximately 1×10^8 of γδT cell populations could be prepared in high-purity from 1.5 mL of peripheral blood.
A culture solution of Yssel containing 10% human AB serum was used as the culture solution. As a result, rapid cell proliferation was observed from about Day 8 after the culture. The number of cells on Day 13 was 3×10^8, which was about 5000 times (FIG. 1B).
As comparison, IL-7 and IL-15 in the culture solution were replaced by IL-2 (PROLEUKIN, Chiron Therapeutics), and monocytes were cultured.

[3] = compound 7 1 μM vs zoledronate 5 μM
[4] = compound 7 1 μM, IL-7 and IL-15 25 ng/mL

O=P(O)(O)C(O)(Cn1ccnc1)P(=O)(O)O [zoledronate, reference compound]
effect on cell proliferation (γδT cells [1]; [3]): almost no difference

IL-2: interleukin-2 (PROLEUKIN, Chiron Therapeutics), cytokine used for proliferation of γδT cells
effect of promoting cell proliferation by IL-7 and IL-15 on further addition of IL-2 (γδT cells [2]; monocytes stimulated with compound 7): not further increased

CC(C)(C)C(=O)OCOP(=O)(OCOC(=O)C(C)(C)C)C(CNc1nccs1)P(=O)(OCOC(=O)C(C)(C)C)OCOC(=O)C(C)(C)C [compound 7, tetrakispivaloyloxymethyl 2-(thiazole-2-ylamino)ethylidene-1,1-bisphosphonate]
effect on cell proliferation (γδT cells [1]; [3]): almost no difference | frequency of the γδT cells in lymphocyte fraction (P1) (Vd2/P1) (γδT cells [1]; Day 8 and Day 11, compared to the zoledronate treatment group, t test): significantly higher | cell proliferation-stimulating effect compared to zoledronate (γδT cells [1]; Day 11, Experiment 1, subjects HD1 to HD4, compound 7 1 μM vs zoledronate 5 μM): strongly recognized | cell proliferation-stimulating effect compared to zoledronate (γδT cells [1]; Day 11, Experiment 2, subject): the same level | cell proliferation-stimulating effect compared to zoledronate (γδT cells [1]; Day 11, Experiment 2, subject HD8): weak | cell proliferation-stimulating effect compared to zoledronate (γδT cells [1]; Day 11, Experiment 2, subjects HD6 and HD7): greater | proliferation of γδT cells compared to zoledronate, average (γδT cells [1]; Day 11, Experiments 1 and 2, n=8, p=0.008, t test): significantly excellent | frequency of the γδT cells in CD3 positive cells (Vd2/CD3) (γδT cells [1]; compared to the zoledronate treatment group, t test): significantly higher | start of rapid cell proliferation (γδT cells [2]; [4]): ~8 days | γδT cell populations prepared in high-purity from 1.5 mL of peripheral blood (γδT cells [2]; [4]): approximately 1×10^8 | ratio of the γδT cells (γδT cells [2]; donor 1 (HD1), compound 7 1 μM, IL-7 and IL-15 25 ng/mL, 2.7% at Day 0): 97.1% | ratio of the γδT cells (γδT cells [2]; donor 2 (HD2), compound 7 1 μM, IL-7 and IL-15 25 ng/mL, 1.7% at Day 0): 94.5% | number of cells on Day 13 (γδT cells [2]; from 3×10^6 monocytes (3 mL peripheral blood), compound 7 1 μM, IL-7 and IL-15 25 ng/mL): 3×10^8 | fold increase of cells on Day 13 (γδT cells [2]; from 3×10^6 monocytes, compound 7 1 μM, IL-7 and IL-15 25 ng/mL): about 5000 times

Reference: patent publication US12637658B2, “Method for gene transfer into gamma-delta type T cell” (Mie University, priority 2018, dated 2026)
